PubChem BioAssay (NCI)
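Dose response: 5 concentrations. Exposure: 48 h. Format: 96-well plates. Endpoint: linear interpolation; highest concentration if not reached. GI50: concentration for 50% inhibition of growth. TGI: concentration producing complete growth inhibition.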

Experiments:
Test in all cases: growth of human tumour cells (NCI), 48 h
786-0 renal = test system: 786-0 renal
A498 renal = test system: A498 renal
A549 NSCLC = test system: A549 NSCLC
ACHN renal = test system: ACHN renal
BT-549 breast = test system: BT-549 breast
CAKI-1 renal = test system: CAKI-1 renal
CCRF-CEM leukemia = test system: CCRF-CEM leukemia
COLO 205 colon = test system: COLO 205 colon
DU-145 prostate = test system: DU-145 prostate
EKVX NSCLC = test system: EKVX NSCLC
HCC-2998 colon = test system: HCC-2998 colon
HCT-116 colon = test system: HCT-116 colon
HCT-15 colon = test system: HCT-15 colon
HL-60(TB) leukemia = test system: HL-60(TB) leukemia
HOP-62 NSCLC = test system: HOP-62 NSCLC
HOP-92 NSCLC = test system: HOP-92 NSCLC
HS 578T breast = test system: HS 578T breast
HT29 colon = test system: HT29 colon
IGROV1 ovarian = test system: IGROV1 ovarian
K-562 leukemia = test system: K-562 leukemia
KM12 colon = test system: KM12 colon
LOX IMVI melanoma = test system: LOX IMVI melanoma
M14 melanoma = test system: M14 melanoma
MALME-3M melanoma = test system: MALME-3M melanoma
MCF7 breast = test system: MCF7 breast
MDA-MB-231 breast = test system: MDA-MB-231 breast
MDA-MB-435 = test system: MDA-MB-435
MOLT-4 leukemia = test system: MOLT-4 leukemia
NCI-H226 lung = test system: NCI-H226 lung
NCI-H23 lung = test system: NCI-H23 lung
NCI-H460 lung = test system: NCI-H460 lung
NCI/ADR-RES ovarian = test system: NCI/ADR-RES ovarian
OVCAR-3 ovarian = test system: OVCAR-3 ovarian
OVCAR-4 ovarian = test system: OVCAR-4 ovarian
OVCAR-5 ovarian = test system: OVCAR-5 ovarian
OVCAR-8 ovarian = test system: OVCAR-8 ovarian
PC-3 prostate = test system: PC-3 prostate
RPMI-8226 leukemia = test system: RPMI-8226 leukemia
RXF 393 renal = test system: RXF 393 renal
SF-268 CNS = test system: SF-268 CNS
SF-539 CNS = test system: SF-539 CNS
SK-MEL-2 melanoma = test system: SK-MEL-2 melanoma
SK-MEL-28 melanoma = test system: SK-MEL-28 melanoma
SK-MEL-5 melanoma = test system: SK-MEL-5 melanoma
SK-OV-3 ovarian = test system: SK-OV-3 ovarian
SN12C renal = test system: SN12C renal
SNB-19 CNS = test system: SNB-19 CNS
SNB-75 CNS = test system: SNB-75 CNS
SR leukemia = test system: SR leukemia
SW-620 colon = test system: SW-620 colon
T-47D breast = test system: T-47D breast
TK-10 renal = test system: TK-10 renal
U251 CNS = test system: U251 CNS
UACC-257 melanoma = test system: UACC-257 melanoma
UACC-62 melanoma = test system: UACC-62 melanoma
UO-31 renal = test system: UO-31 renal

Work on `CC(=O)O.CC(=O)O.CC(=O)O.CC(=O)O.[Rh].[Rh]` yielded a GI50 (786-0 renal) of 34.8 µM, a TGI (786-0 renal) greater than 100 µM and a GI50 (A498 renal) of 18.8 µM. For the same molecule, the TGI (A498 renal) was 37.2 µM, the GI50 (A549 NSCLC) was 28.6 µM and the TGI (A549 NSCLC) was greater than 100 µM. It also gave a GI50 (ACHN renal) of 24.9 µM, a TGI (ACHN renal) greater than 100 µM and a GI50 (BT-549 breast) of 29.5 µM. For the same molecule, the TGI (BT-549 breast) was 90.3 µM, the GI50 (CAKI-1 renal) was 12.2 µM and the TGI (CAKI-1 renal) was 30.7 µM. It also gave a GI50 (CCRF-CEM leukemia) of 5.1 µM, a TGI (CCRF-CEM leukemia) of 20.3 µM and a GI50 (COLO 205 colon) of 7.3 µM. For the same molecule, the TGI (COLO 205 colon) was 30.1 µM, the GI50 (DU-145 prostate) was 47.9 µM and the TGI (DU-145 prostate) was greater than 100 µM. The GI50 (EKVX NSCLC) was 20.7 µM, the TGI (EKVX NSCLC) was 44.1 µM and the GI50 (HCC-2998 colon) was 24 µM. The TGI (HCC-2998 colon) was 56.7 µM, the GI50 (HCT-116 colon) was 24.1 µM and the TGI (HCT-116 colon) was 94.1 µM. It also gave a GI50 (HCT-15 colon) of 28.5 µM, a TGI (HCT-15 colon) of 83.9 µM and a GI50 (HL-60(TB) leukemia) of 23.7 µM. The TGI (HL-60(TB) leukemia) was 50.9 µM, the GI50 (HOP-62 NSCLC) was 28.8 µM and the TGI (HOP-62 NSCLC) was 84.3 µM. The GI50 (HOP-92 NSCLC) was 25.5 µM, the TGI (HOP-92 NSCLC) was 63.1 µM and the GI50 (HS 578T breast) was 60.6 µM. The TGI (HS 578T breast) was greater than 100 µM, the GI50 (HT29 colon) was 21.2 µM and the TGI (HT29 colon) was 53.6 µM. The GI50 (IGROV1 ovarian) was 34 µM, the TGI (IGROV1 ovarian) was 91.1 µM and the GI50 (K-562 leukemia) was 18.5 µM. It also gave a TGI (K-562 leukemia) of 56.2 µM, a GI50 (KM12 colon) of 34.8 µM and a TGI (KM12 colon) greater than 100 µM. The GI50 (LOX IMVI melanoma) was 17.2 µM, the TGI (LOX IMVI melanoma) was 61.9 µM and the GI50 (M14 melanoma) was 27.8 µM. It also gave a TGI (M14 melanoma) of 82.5 µM, a GI50 (MALME-3M melanoma) of 7.06 µM and a TGI (MALME-3M melanoma) of 37.4 µM. For the same molecule, the GI50 (MCF7 breast) was 27.2 µM, the TGI (MCF7 breast) was greater than 100 µM and the GI50 (MDA-MB-231 breast) was 48.6 µM. For the same molecule, the TGI (MDA-MB-231 breast) was greater than 100 µM, the GI50 (MDA-MB-435) was 21.7 µM and the TGI (MDA-MB-435) was 55.4 µM. For the same molecule, the GI50 (MOLT-4 leukemia) was 22.6 µM, the TGI (MOLT-4 leukemia) was 47 µM and the GI50 (NCI-H226 lung) was 22 µM. It also gave a TGI (NCI-H226 lung) of 99.2 µM, a GI50 (NCI-H23 lung) of 32.1 µM and a TGI (NCI-H23 lung) greater than 100 µM. It also gave a GI50 (NCI-H460 lung) of 37.4 µM, a TGI (NCI-H460 lung) greater than 100 µM and a GI50 (NCI/ADR-RES ovarian) of 30.2 µM. It also gave a TGI (NCI/ADR-RES ovarian) of 92.2 µM, a GI50 (OVCAR-3 ovarian) of 26.1 µM and a TGI (OVCAR-3 ovarian) greater than 100 µM. For the same molecule, the GI50 (OVCAR-4 ovarian) was 37 µM, the TGI (OVCAR-4 ovarian) was greater than 100 µM and the GI50 (OVCAR-5 ovarian) was 20.5 µM. For the same molecule, the TGI (OVCAR-5 ovarian) was 52.4 µM, the GI50 (OVCAR-8 ovarian) was 27.6 µM and the TGI (OVCAR-8 ovarian) was greater than 100 µM. For the same molecule, the GI50 (PC-3 prostate) was 27.1 µM, the TGI (PC-3 prostate) was 91 µM and the GI50 (RPMI-8226 leukemia) was 19.4 µM. The TGI (RPMI-8226 leukemia) was 50.8 µM, the GI50 (RXF 393 renal) was 10.5 µM and the TGI (RXF 393 renal) was 78.3 µM. For the same molecule, the GI50 (SF-268 CNS) was 33.2 µM, the TGI (SF-268 CNS) was greater than 100 µM and the GI50 (SF-539 CNS) was 26.4 µM. It also gave a TGI (SF-539 CNS) of 88.4 µM, a GI50 (SK-MEL-2 melanoma) of 30.7 µM and a TGI (SK-MEL-2 melanoma) of 81.4 µM. The GI50 (SK-MEL-28 melanoma) was 32.3 µM, the TGI (SK-MEL-28 melanoma) was 93.8 µM and the GI50 (SK-MEL-5 melanoma) was 18.6 µM. It also gave a TGI (SK-MEL-5 melanoma) of 37 µM, a GI50 (SK-OV-3 ovarian) greater than 100 µM and a TGI (SK-OV-3 ovarian) greater than 100 µM. The GI50 (SN12C renal) was 40.3 µM, the TGI (SN12C renal) was greater than 100 µM and the GI50 (SNB-19 CNS) was 60 µM. It also gave a TGI (SNB-19 CNS) greater than 100 µM, a GI50 (SNB-75 CNS) of 30.5 µM and a TGI (SNB-75 CNS) greater than 100 µM. For the same molecule, the GI50 (SR leukemia) was 21.1 µM, the TGI (SR leukemia) was 40.2 µM and the GI50 (SW-620 colon) was 22 µM. The TGI (SW-620 colon) was greater than 100 µM, the GI50 (T-47D breast) was 14.9 µM and the TGI (T-47D breast) was greater than 100 µM. The GI50 (TK-10 renal) was 18.3 µM, the TGI (TK-10 renal) was 56.4 µM and the GI50 (U251 CNS) was 25.2 µM. It also gave a TGI (U251 CNS) of 75.3 µM, a GI50 (UACC-257 melanoma) of 19.5 µM and a TGI (UACC-257 melanoma) of 64.8 µM. It also gave a GI50 (UACC-62 melanoma) of 24.3 µM, a TGI (UACC-62 melanoma) of 56.5 µM and a GI50 (UO-31 renal) of 20.6 µM. For the same molecule, the TGI (UO-31 renal) was 59 µM.
